Twelve molecules from US20030186967A1, “Acylresorcinol derivatives are selective vitronectin receptor inhibitors” (American Home Products Corporation, priority 1998, published 2003) can be followed below.

In this assay the target is T1, Vitronectin receptor αVβ3 (Homo sapiens, UniProt P05106+P06756).
T1 construct: expressed in transfected cells; host or cells: 512P5 cells (plasma membrane preparation)
Put plainly: Vitronectin Receptor αVβ3 Binding Assay. The conditions noted are these: read-out: VnR (IC50μM).

T1 sequence (P06756 31-889 limits assumed): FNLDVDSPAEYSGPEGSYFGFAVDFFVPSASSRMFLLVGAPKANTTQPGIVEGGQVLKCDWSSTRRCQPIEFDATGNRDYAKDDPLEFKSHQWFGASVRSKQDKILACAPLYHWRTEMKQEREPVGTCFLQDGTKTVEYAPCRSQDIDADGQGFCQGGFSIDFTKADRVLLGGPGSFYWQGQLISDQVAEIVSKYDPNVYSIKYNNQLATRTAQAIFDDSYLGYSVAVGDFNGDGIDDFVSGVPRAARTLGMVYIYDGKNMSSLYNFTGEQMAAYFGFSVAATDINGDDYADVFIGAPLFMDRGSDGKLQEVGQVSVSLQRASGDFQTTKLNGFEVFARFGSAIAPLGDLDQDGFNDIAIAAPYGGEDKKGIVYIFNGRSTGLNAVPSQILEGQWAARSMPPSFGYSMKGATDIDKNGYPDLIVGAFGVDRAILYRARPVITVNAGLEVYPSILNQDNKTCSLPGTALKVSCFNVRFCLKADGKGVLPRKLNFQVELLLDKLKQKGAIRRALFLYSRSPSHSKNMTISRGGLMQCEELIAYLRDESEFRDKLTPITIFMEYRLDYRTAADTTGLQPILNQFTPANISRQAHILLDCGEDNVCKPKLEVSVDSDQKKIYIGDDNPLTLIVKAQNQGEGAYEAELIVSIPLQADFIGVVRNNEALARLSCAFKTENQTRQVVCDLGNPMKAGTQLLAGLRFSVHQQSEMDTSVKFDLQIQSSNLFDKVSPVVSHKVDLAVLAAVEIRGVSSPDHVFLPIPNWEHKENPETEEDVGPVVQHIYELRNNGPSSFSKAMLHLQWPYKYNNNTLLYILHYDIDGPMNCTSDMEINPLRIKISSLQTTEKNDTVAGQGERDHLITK
T1 sequence (P06756 891-1048 partner limits assumed): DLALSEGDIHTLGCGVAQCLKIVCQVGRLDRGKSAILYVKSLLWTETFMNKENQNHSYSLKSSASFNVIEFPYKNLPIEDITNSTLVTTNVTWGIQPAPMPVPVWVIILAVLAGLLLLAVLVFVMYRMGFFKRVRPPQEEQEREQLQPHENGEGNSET
T1 sequence (P05106 27-788): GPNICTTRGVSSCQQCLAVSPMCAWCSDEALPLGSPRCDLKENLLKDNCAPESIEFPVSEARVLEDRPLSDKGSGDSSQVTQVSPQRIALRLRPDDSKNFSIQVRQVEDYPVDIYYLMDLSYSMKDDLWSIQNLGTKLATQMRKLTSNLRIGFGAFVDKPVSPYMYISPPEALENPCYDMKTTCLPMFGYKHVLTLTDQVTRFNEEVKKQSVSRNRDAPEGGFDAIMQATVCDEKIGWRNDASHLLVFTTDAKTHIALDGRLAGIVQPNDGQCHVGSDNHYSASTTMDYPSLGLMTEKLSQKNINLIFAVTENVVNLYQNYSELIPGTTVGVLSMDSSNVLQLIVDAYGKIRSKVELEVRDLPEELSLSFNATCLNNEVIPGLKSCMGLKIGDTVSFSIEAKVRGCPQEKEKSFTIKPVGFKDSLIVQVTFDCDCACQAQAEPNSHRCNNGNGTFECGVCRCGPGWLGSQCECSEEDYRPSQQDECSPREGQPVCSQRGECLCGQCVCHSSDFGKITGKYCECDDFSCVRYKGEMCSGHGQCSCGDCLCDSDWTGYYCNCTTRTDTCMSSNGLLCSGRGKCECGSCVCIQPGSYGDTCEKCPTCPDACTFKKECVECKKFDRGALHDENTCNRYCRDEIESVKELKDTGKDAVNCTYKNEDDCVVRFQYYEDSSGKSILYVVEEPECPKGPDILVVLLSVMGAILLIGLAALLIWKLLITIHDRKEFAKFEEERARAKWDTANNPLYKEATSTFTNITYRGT

`CC(C)(C)COC(=O)N[C@@H](CNC(=O)c1ccc(OCCNC2=NCCCN2)cc1O)C(=O)O` [Example 1, (2S)-3-({2-hydroxy-4-[2-(1,4,5,6-tetrahydropyrimidin-2-ylamino)ethoxy]benzoyl}amino)-2-{[(neopentyloxy)carbonyl]amino}propanoic acid]: the IC50 was 0.0241 µM.

On to `COC(=O)N[C@@H](CNC(=O)c1ccc(OCCNC2=NCCCN2)cc1O)C(=O)O` [Example 2, (2S)-3-({2-hydroxy-4-[2-(1,4,5,6-tetrahydropyrimidin-2-ylamino)ethoxy]benzoyl}-amino)-2-[(methoxycarbonyl)amino]propanoic acid], for which the IC50 worked out at 0.187 µM.

`CCOC(=O)N[C@@H](CNC(=O)c1ccc(OCCNC2=NCCCN2)cc1O)C(=O)O` [Example 3, (2S)-2-[(ethoxycarbonyl)amino]-3-({2-hydroxy-4-[2-(1,4,5,6-tetrahydropyrimidin-2ylamino)ethoxy]benzoyl}amino)propanoic acid]: the IC50 was determined as 0.123 µM.

In the case of `CCCOC(=O)N[C@@H](CNC(=O)c1ccc(OCCNC2=NCCCN2)cc1O)C(=O)O` [Example 4, (2S)-3-({2-hydroxy-4-[2-(1,4,5,6-tetrahydropyrimidin-2-ylamino)ethoxy]benzoyl}-amino)-2-[(propoxycarbonyl)amino]propanoic acid], the IC50 is 0.095 µM.

As for `CC(C)OC(=O)N[C@@H](CNC(=O)c1ccc(OCCNC2=NCCCN2)cc1O)C(=O)O` [Example 5, (2S)-3-({2-hydroxy-4-[2-(1,4,5,6-tetrahydropyrimidin-2-ylamino)ethoxy]benzoyl}-amino)-2-[(isopropoxycarbonyl)amino]propanoic acid], the IC50 was found to be 0.061 µM.

With `C=CCOC(=O)N[C@@H](CNC(=O)c1ccc(OCCNC2=NCCCN2)cc1O)C(=O)O` [Example 6, (2S)-2-{[(allyloxy)carbonyl]amino}-3-({2-hydroxy-4-[2-(1,4,5,6-tetrahydropyrimidin-2-ylamino)ethoxy]benzoyl}amino)propanoic acid], the IC50 was 0.108 µM.

For `C=CCCOC(=O)N[C@@H](CNC(=O)c1ccc(OCCNC2=NCCCN2)cc1O)C(=O)O` [Example 7, (2S)-2-{[(but-3-enyloxy)carbonyl]amino}-3-({2-hydroxy-4-[2-(1,4,5,6-tetrahydropyrimidin-2-ylamino)ethoxy]benzoyl}amino)propanoic acid], the IC50 turned out to be 0.092 µM.

As to `CCCCCCOC(=O)N[C@@H](CNC(=O)c1ccc(OCCNC2=NCCCN2)cc1O)C(=O)O` [Example 8, (2S)-2-{[(hexyloxy)carbonyl]amino}-3-({2-hydroxy-4-[2-(1,4,5,6-tetrahydropyrimidin-2-ylamino)ethoxy]benzoyl}amino)propanoic acid], the IC50 is greater than 1 µM.

As for `CCCCCCCCOC(=O)N[C@@H](CNC(=O)c1ccc(OCCNC2=NCCCN2)cc1O)C(=O)O` [Example 9, (2S)-3-({2-hydroxy-4-[2-(1,4,5,6-tetrahydropyrimidin-2-ylamino)ethoxy]benzoyl}-amino)-2-{[(octyloxy)carbonyl]amino}propanoic acid], the IC50 worked out at 0.11 µM.

Consider `O=C(N[C@@H](CNC(=O)c1ccc(OCCNC2=NCCCN2)cc1O)C(=O)O)OCC(Cl)(Cl)Cl` [Example 10, (2S)-3-({2-hydroxy-4-[2-(1,4,5,6-tetrahydropyrimidin-2-ylamino)ethoxy]-benzoyl}amino)-2-{[(2,2,2-trichloroethoxy)carbonyl]amino}propanoic acid], for which the IC50 amounted to 0.061 µM.

In the case of `CCCCOC(=O)N[C@@H](CNC(=O)c1ccc(OCCNC2=NCCCN2)cc1O)C(=O)O` [Example 11, (2S)-3-({2-hydroxy-4-[2-(1,4,5,6-tetrahydropyrimidin-2-ylamino)ethoxy]-benzoyl}amino)-2-[(butoxycarbonyl)amino]propanoic acid], the IC50 stood at 0.0696 µM.

For `CC(C)COC(=O)N[C@@H](CNC(=O)c1ccc(OCCNC2=NCCCN2)cc1O)C(=O)O` [Example 12, (2S)-3-({2-hydroxy-4-[2-(1,4,5,6-tetrahydropyrimidin-2-ylamino)ethoxy]benzoyl}-amino)-2-[(isobutoxycarbonyl)amino]propanoic acid], the IC50 was 0.0661 µM.
